Assay [1] deals with T1, transthyretin tetramer (Homo sapiens, UniProt P02766). The conditions noted are these: two molecules of glabridin per tetramer; cited from earlier work.
The target of assay [2] is T1, transthyretin tetramer. Kind of assay: Stabilization of transthyretin tetramer in serum ex vivo (Test Example 1; urea denaturation, electrophoresis and Western blotting). It counts as biochemical. Set-up: from tissue; host or cells: human serum (blood of three middle-aged or older persons). How it is done:
The white circles represent the ratios in the serums added with the glabridin. The black circles represent the ratios in the serums added with the medium-chain fatty acid triglyceride solution containing a hydrophobic licorice extract.
Serums were obtained from blood taken from three middle-aged or older persons. The medium-chain fatty acid triglyceride solution containing a hydrophobic licorice extract and the glabridin that were obtained in Example 2 were added to each serum (added in such a manner that the amount of the glabridin was 0, 10, and 50 μM respectively). The resulting mixtures were incubated at 25° C. for 30 minutes, and then denatured with urea. Using these samples, the transthyretins (the tetramers and the monomers) in the blood were quantitated by electrophoresis and Western blotting. The stabilization effect was investigated using the ratio of the monomers to the tetramers (monomer/tetramer).

These results are taken from patent US20230241149A1, “TRANSTHYRETIN TETRAMER STABILIZING AGENT, AND PREVENTING AGENT OR PROGRESSION SUPPRESSING AGENT FOR TRANSTHYRETIN AMYLOIDOSIS” (KANEKA CORPORATION, priority 2020, published 2023).

SMILES strings stand for the structures.

For `CC1(C)C=Cc2c(ccc3c2OC[C@@H](c2ccc(O)cc2O)C3)O1` [glabridin], on transthyretin tetramer [1], the “effect on transthyretin tetramer and formation of amyloid fibrils” value was “binding to and stabilizing a transthyretin tetramer”. Also, the “ratio of the monomers to the tetramers (monomer/tetramer)” value on transthyretin tetramer [2] (serum from three middle-aged or older persons, glabridin added at concentrations up to 50 μM, 25° C. 30 minutes, then denatured with urea) is recorded as “did not change”. Further, the “stabilization effect of the transthyretin (decreasing the ratio of the monomers and increasing the tetramers)” value on transthyretin tetramer [2] (serum, added so that the amount of glabridin was 0, 10, 50 μM) is “not observed”.
